Test results published in US20230029496A1, “AMINO ACID ALTERNATIVE CURING SYSTEM” (THE TEXAS A&M UNIVERSITY SYSTEM, priority 2019, published 2023).
Values joined by “and” are separate entries in the source; they are usually repeats but may differ in a detail not shown here. Equal values may be shown once. Marks after values point to notes of the source that are not given here.

System: Nitric Oxide Synthase (NOS) system
Assay: Cure efficiency (NO-heme, total heme, nitrosylation) of cooked pre- and post-rigor pork semimembranosus muscle (Example 13)
Assay type: biochemical
Procedure: Cooked meat samples were analyzed for the degree of nitrosylation through residual nitrite from the Pearson and Tauber method from the modified Hornsey's procedure for analyzing small samples [103] from the supernatant and pellet. 2 mL or 2 g of the samples were treated with acetone to measure NO-heme concentration and for total heme concentration, 2 mL or 2 g of the samples were treated with acetone and hydrochloric acid. Both samples were measured using a spectrophotometer (2100 Series Spectrophotometer, Unico, Dayton, N.J.) and a 1 cm quartz cuvette. NO-heme concentration (ppm acid hematin) was read at 540 nm, and total heme concentration (ppm acid hematin) was determined at 640 nm to determine nitrosylation as the indication of the effectiveness of L-arginine in curing the samples. This procedure measured the conversion levels of myoglobin to nitrosohemochromagen, the cured meat color, and the amount of conversion as compared to the total pigmentation within the sample.
Curing efficiency or nitrosylation is calculated as the percentage conversion of NO-heme to total heme. Cure efficiency is the percentage of total pigment converted to nitroso pigment and indicates the degree of cured color fading. Cured meat pigment is extracted in a solution of 80% acetone and 20% water that extracts cured pigment heme. Total heme pigments are extracted using an acidified acetone solution that extracts heme from all heme proteins as first used by Hornsey. NO-heme concentration (as ppm acid hematin)=sample A540×290 determines the specific cure color pink from the rest of the heme pigmentation of the sample. Total heme concentration (ppm acid hematin)=sample A640×680 determines the total heme pigmentation of the sample. Cure efficiency (%)=(ppm of nitrosoheme […]ppm of total pigment)×100 and indicates how much of the product is cured and holds the cured pink stability once cooked.

[1] = 2 mM L-arginine, cooked post rigor pellet
[2] = 2 mM L-arginine, cooked post rigor supernatant
[3] = 2 mM L-arginine, cooked pre-rigor pellet
[4] = 2 mM L-arginine, cooked pre-rigor supernatant
[5] = 4 mM L-arginine, cooked post rigor pellet
[6] = 4 mM L-arginine, cooked post rigor supernatant
[7] = 4 mM L-arginine, cooked pre-rigor pellet
[8] = 4 mM L-arginine, cooked pre-rigor supernatant
[9] = 8 mM L-arginine, cooked post rigor pellet
[10] = 8 mM L-arginine, cooked post rigor supernatant
[11] = 8 mM L-arginine, cooked pre-rigor pellet
[12] = 8 mM L-arginine, cooked pre-rigor supernatant
[13] = 16 mM L-arginine, cooked post rigor pellet
[14] = 16 mM L-arginine, cooked post rigor supernatant
[15] = 16 mM L-arginine, cooked pre-rigor pellet
[16] = 16 mM L-arginine, cooked pre-rigor supernatant
[17] = 32 mM L-arginine, cooked post rigor pellet
[18] = 32 mM L-arginine, cooked post rigor supernatant
[19] = 32 mM L-arginine, cooked pre-rigor pellet
[20] = 32 mM L-arginine, cooked pre-rigor supernatant

SMILES: N=C(N)NCCC[C@H](N)C(=O)O [L-arginine]
- NO-Heme [1]: 16.10^b ppm
- Nitrosylation [1]: 31.22^a %
- Total Heme [1]: 62.56^a ppm
- NO-Heme [2]: 23.76^a ppm
- Nitrosylation [2]: 61.38^a %
- Total Heme [2]: 64.43^a ppm
- NO-Heme [3]: 19.02^a ppm
- Nitrosylation [3]: 52.09^a %
- Total Heme [3]: 61.48 ppm and 61.48^ab ppm
- NO-Heme [4]: 26.02 ppm and 26.02^ab ppm
- Nitrosylation [4]: 60.23^a %
- Total Heme [4]: 50.43^a ppm
- NO-Heme [5]: 19.72 ppm and 19.72^ab ppm
- Nitrosylation [5]: 35.19^a %
- Total Heme [5]: 67.72^a ppm
- NO-Heme [6]: 22.81^a ppm
- Nitrosylation [6]: 55.90^a %
- Total Heme [6]: 73.33^a ppm
- NO-Heme [7]: 18.82^a ppm
- Nitrosylation [7]: 49.31^a %
- Total Heme [7]: 52.07 ppm and 52.07^ab ppm
- NO-Heme [8]: 28.17 ppm and 28.17^ab ppm
- Nitrosylation [8]: 70.03^a %
- Total Heme [8]: 40.86^a ppm
- NO-Heme [9]: 18.34 ppm and 18.34^ab ppm
- Nitrosylation [9]: 35.53^a %
- Total Heme [9]: 63.58^a ppm
- NO-Heme [10]: 25.98^a ppm
- Nitrosylation [10]: 79.27^a %
- Total Heme [10]: 62.90^a ppm
- NO-Heme [11]: 16.38^a ppm
- Nitrosylation [11]: 31.43^a %
- Total Heme [11]: 80.07 ppm and 80.07^ab ppm
- NO-Heme [12]: 32.98^a ppm
- Nitrosylation [12]: 75.71^a %
- Total Heme [12]: 45.11^a ppm
- NO-Heme [13]: 18.42 ppm and 18.42^ab ppm
- Nitrosylation [13]: 62.80^a %
- Total Heme [13]: 51.68^a ppm
- NO-Heme [14]: 20.54^a ppm
- Nitrosylation [14]: 52.33^a %
- Total Heme [14]: 54.46^a ppm
- NO-Heme [15]: 26.56^a ppm
- Nitrosylation [15]: 55.29^a %
- Total Heme [15]: 123.31 ppm and 123.31^a ppm
- NO-Heme [16]: 22.45 ppm and 22.45^ab ppm
- Nitrosylation [16]: 55.02^a %
- Total Heme [16]: 42.05^a ppm
- NO-Heme [17]: 27.33 ppm and 27.33^a ppm
- Nitrosylation [17]: 34.51^a %
- Total Heme [17]: 85.11^a ppm
- NO-Heme [18]: 25.50^a ppm
- Nitrosylation [18]: 104.27^a %
- Total Heme [18]: 59.73^a ppm
- NO-Heme [19]: 33.37^a ppm
- Nitrosylation [19]: 86.11^a %
- Total Heme [19]: 53.72 ppm and 53.72^ab ppm
- NO-Heme [20]: 27.67^ab ppm
- Nitrosylation [20]: 66.20^a %
- Total Heme [20]: 44.94^a ppm
